Measurements published in article PMC10861299, “A Systematic Survey of Reversibly Covalent Dipeptidyl Inhibitors of the SARS-CoV-2 Main Protease” (Journal of Medicinal Chemistry, 2023).
Read-outs that look alike come from different tables or passages of the source.

Tests used:
[1] = molecular target: M^Pro-eGFP fusion protein in 293T cells (Severe acute respiratory syndrome coronavirus 2, UniProt P0DTD1); experiment: cell-based; design: species or system SARS-CoV-2; details: read-out: Cellular EC50
[2] = molecular target: SARS-CoV-2 main protease (M^Pro) (Severe acute respiratory syndrome coronavirus 2, UniProt P0DTD1); experiment: In vitro M^Pro enzymatic inhibition with fluorogenic substrate Sub3; format: biochemical
[3] = tested on: SARS-CoV-2 (USA-WA1/2020); experiment: Plaque reduction neutralization test in Vero E6 cells; format: cell-based; details: SARS-CoV-2 USA-WA1/2020, Vero E6 cells, 3 days, read-out: Antiviral EC50
[4] = 20 nM M^Pro, 10 μM Sub3, 30 min preincubation, read-out: Enzymatic IC50
[5] = read-out: IC50 (M^Pro enzymatic inhibition)
[6] = Severe acute respiratory syndrome coronavirus 2, Vero C1008, 72 h

SMILES	EC50 [1]	IC50 [2, 4]	IC50 [2, 5]	EC50 [3, 6]	EC50 [3]
CC1(C)[C@@H]2[C@@H](C(=O)N[C@H](C=O)C[C@@H]3CCNC3=O)N(C(=O)COc3ccc(Cl)cc3Cl)C[C@@H]21 [MI-14, (1R,2S,5S)-3-(2-(2,4-Dichlorophenoxy)acetyl)-6,6-dimethyl-N-((S)-1-oxo-3-((S)-2-oxopyrrolidin-3-yl)propan-2-yl)-3-azabicyclo[3.1.0]hexane-2-carboxamide, reference compound]	280 nM	28 nM	≤ 50 nM	–	–
O=C[C@H](C[C@@H]1CCNC1=O)NC(=O)[C@@H]1[C@H]2CCC[C@H]2CN1C(=O)COc1ccc(Cl)c(Cl)c1 [MI-31, (1S,3aR,6aS)-2-(2-(3,4-Dichlorophenoxy)acetyl)-N-((S)-1-oxo-3-((S)-2-oxopyrrolidin-3-yl)propan-2-yl)octahydrocyclopenta[c]pyrrole-1-carboxamide, reference compound]	2700 nM	42 nM	≤ 50 nM	–	–
CC(C)(C)C[C@H](NC(=O)c1cc2ccccc2[nH]1)C(=O)N[C@H](C=O)C[C@@H]1CCNC1=O [MPI48, N-((S)-4,4-Dimethyl-1-oxo-1-(((S)-1-oxo-3-((S)-2-oxopyrrolidin-3-yl)propan-2-yl)amino)pentan-2-yl)-1H-indole-2-carboxamide]	1600 nM	29 nM	–	–	–
COc1cccc2[nH]c(C(=O)N[C@@H](CC(C)(C)C)C(=O)N[C@H](C=O)C[C@@H]3CCNC3=O)cc12 [MPI49, N-((S)-4,4-Dimethyl-1-oxo-1-(((S)-1-oxo-3-((S)-2-oxopyrrolidin-3-yl)propan-2-yl)amino)pentan-2-yl)-4-methoxy-1H-indole-2-carboxamide]	910 nM	74 nM	–	1300 nM	–
CC(C)(C)C[C@H](NC(=O)OCc1ccccc1)C(=O)N[C@H](C=O)C[C@@H]1CCNC1=O [MPI50, Benzyl ((S)-4,4-Dimethyl-1-oxo-1-(((S)-1-oxo-3-((S)-2-oxopyrrolidin-3-yl)propan-2-yl)amino)pentan-2-yl)carbamate]	730 nM	53 nM	–	< 1000 nM	750 nM
O=C[C@H](C[C@@H]1CCNC1=O)NC(=O)[C@H](CC1CCCCC1)NC(=O)OCc1ccccc1 [MPI51, Benzyl ((S)-3-Cyclohexyl-1-oxo-1-(((S)-1-oxo-3-((S)-2-oxopyrrolidin-3-yl)propan-2-yl)amino)propan-2-yl)carbamate]	770 nM	56 nM	–	6700 nM	–
O=C[C@H](C[C@@H]1CCNC1=O)NC(=O)[C@H](CC1CCCCC1)NC(=O)OCc1cccc(Cl)c1 [MPI52, 3-Chlorobenzyl ((S)-3-Cyclohexyl-1-oxo-1-(((S)-1-oxo-3-((S)-2-oxopyrrolidin-3-yl)propan-2-yl)amino)propan-2-yl)carbamate]	590 nM	110 nM	–	2600 nM	–
CC(=O)Oc1cccc(COC(=O)N[C@@H](CC2CCCCC2)C(=O)N[C@H](C=O)C[C@@H]2CCNC2=O)c1 [MPI53, 3-(((((S)-3-Cyclohexyl-1-oxo-1-(((S)-1-oxo-3-((S)-2-oxopyrrolidin-3-yl)propan-2-yl)amino)propan-2-yl)carbamoyl)oxy)methyl)phenyl Acetate]	3500 nM	98 nM	–	–	–
CC(C)(C)O[C@@H]1C[C@@H](C(=O)N[C@H](C=O)C[C@@H]2CCNC2=O)N(C(=O)OCc2ccccc2)C1 [MPI55]	–	560 nM	–	–	–
O=C[C@H](C[C@@H]1CCNC1=O)NC(=O)[C@@H]1C[C@@H](C2CCCCC2)CN1C(=O)OCc1ccccc1 [MPI56, (2S,4S)-Benzyl 4-Cyclohexyl-2-(((S)-1-oxo-3-((S)-2-oxopyrrolidin-3-yl)propan-2-yl)carbamoyl)pyrrolidine-1-carboxylate]	–	510 nM	–	–	–
CC1(C)[C@@H]2[C@@H](C(=O)NC(C=O)CC3CCNC3=O)N(C(=O)OCc3ccccc3)C[C@@H]21 (stereo partly drawn) [MPI57, Benzyl (1R,2S,5S)-6,6-Dimethyl-2-((1-oxo-3-(2-oxopyrrolidin-3-yl)propan-2-yl)carbamoyl)-3-azabicyclo[3.1.0]hexane-3-carboxylate]	–	–	–	1500 nM	–
O=C[C@H](C[C@@H]1CCNC1=O)NC(=O)[C@@H]1CC2(CC2)CN1C(=O)OCc1ccccc1 [MPI58, Benzyl (S)-6-(((S)-1-oxo-3-((S)-2-oxopyrrolidin-3-yl)propan-2yl)carbamoyl)-5-azaspiro[2,4]heptane-5-carboxylate]	660 nM	25 nM	–	3600 nM	–
CC1(C)[C@@H]2[C@@H](C(=O)N[C@H](C=O)C[C@@H]3CCNC3=O)N(C(=O)CNc3ccc(Cl)cc3)C[C@@H]21 [MPI62, (1R,2S,5S)-3-((4-Chlorophenyl)glycyl)-6,6-dimethyl-N-((S)-1-oxo-3-((S)-2-oxopyrrolidin-3-yl)propan-2-yl)-3-azabicyclo[3.1.0]hexane-2-carboxamide]	–	990 nM	–	–	–
O=C[C@H](C[C@@H]1CCNC1=O)NC(=O)[C@@H]1CC2(CC2)CN1C(=O)COc1ccc(Cl)cc1Cl [MPI63, (S)-5-(2-(2,4-Dichlorophenoxy)acetyl)-N-((S)-1-oxo-3-((S)-2-oxopyrrolidin-3-yl)propan-2-yl)-5-azaspiro[2.4]heptane-6-carboxamide]	2900 nM	39 nM	–	–	–
CC1(C)[C@@H]2[C@@H](C(=O)N[C@H](C=O)C[C@@H]3CCNC3=O)N(C(=O)COC3CCCCC3)C[C@@H]21 [MPI64, (1R,2S,5S)-3-(2-(Cyclohexyloxy)acetyl)-6,6-dimethyl-N-((S)-1-oxo-3-((S)-2-oxopyrrolidin-3-yl)propan-2-yl)-3-azabicyclo[3.1.0]hexane-2-carboxamide]	3600 nM	25 nM	–	–	–
N#C[C@H](C[C@@H]1CCNC1=O)NC(=O)C1CC2(CCCC2)CN1C(=O)OCc1ccccc1 (stereo partly drawn) [MPI66-1, Benzyl 3-(((S)-1-Cyano-2-((S)-2-oxopyrrolidin-3-yl)ethyl)carbamoyl)-2-azaspiro[4.4]nonane-2-carboxylate]	–	2200 nM	–	–	–
N#C[C@H](C[C@@H]1CCNC1=O)NC(=O)C1CC2(CCCC2)CN1C(=O)OCc1cccc(Cl)c1 (stereo partly drawn) [MPI66-2, 3-Chlorobenzyl 3-(((S)-1-Cyano-2-((S)-2-oxopyrrolidin-3-yl)ethyl)carbamoyl)-2-azaspiro[4.4]nonane-2-carboxylate]	–	3600 nM	–	–	–
COc1cccc2[nH]c(C(=O)N3CC4(CCCC4)CC3C(=O)N[C@H](C=O)C[C@@H]3CCNC3=O)cc12 (stereo partly drawn) [MPI66-3, 2-(4-Methoxy-1H-indole-2-carbonyl)-N-((S)-1-oxo-3-((S)-2-oxopyrrolidin-3-yl)propan-2-yl)-2-azaspiro[4.4]nonane-3-carboxamide]	–	1500 nM	–	–	–
COc1cccc2[nH]c(C(=O)N3CC4(CCCC4)CC3C(=O)N[C@H](C#N)C[C@@H]3CCCNC3=O)cc12 (stereo partly drawn) [MPI66-4, N-((S)-1-Cyano-2-((S)-2-oxopiperidin-3-yl)ethyl)-2-(4-methoxy-1H-indole-2-carbonyl)-2-azaspiro[4.4]nonane-3-carboxamide]	–	6000 nM	–	–	–
N#C[C@H](C[C@@H]1CCNC1=O)NC(=O)C1CC2(CCCCC2)CN1C(=O)OCc1ccccc1 (stereo partly drawn) [MPI67, Benzyl 3-(((S)-1-Cyano-2-((S)-2-oxopyrrolidin-3-yl)ethyl)carbamoyl)-2-azaspiro[4.5]decane-2-carboxylate]	–	1400 nM	–	–	–
CC(C)(C)OC(=O)N1CC2(CCC2)C[C@H]1C(=O)N[C@H](C=O)C[C@@H]1CCNC1=O [YR-B-101, tert-Butyl-(S)-7-(((S)-1-oxo-3-((S)-2-oxopyrrolidin-3-yl)propan-2-yl)carbamoyl)-6-azaspiro[3.4]octane-6-carboxylate]	–	> 5000 nM	–	–	–
